According to patent publication EP4631959A2, “NOVEL MINIGASTRIN-DERIVED CHOLECYSTOKININ 2 RECEPTOR BINDING MOLECULES FOR IMAGING AND TARGETED RADIOTHERAPY” (priority 2022, dated 2024):
Like-named read-outs stand apart in the source and are kept apart here. Starred links: 1 amine or outer side, 2 acyl side, 3 side chain; linkers in the order of their positions; H or OH if unused. Non-standard residues stand in square brackets, D forms with d. Residues, ends and D or L forms follow the SMILES beside them. *: point of attachment. DOTA = O=C(O)CN1CCN(CC(=O)O)CCN(CC(=O)*)CCN(CC(=O)O)CC1; PEG12 = NCCOCCOCCOCCOCCOCCOCCOCCOCCOCCOCCOCCOCCC(=O)O; d(γGlu) = O=C(O)[C@@H](CCC(=O)[*:2])N[*:1]; PEG8 = NCCOCCOCCOCCOCCOCCOCCOCCOCCC(=O)O; 1Nal = N[C@@H](Cc1cccc2ccccc12)C(=O)O; PEG6 = NCCOCCOCCOCCOCCOCCOCCC(=O)O; PEG5 = NCCOCCOCCOCCOCCOCCC(=O)O; NMeNle = CCCC[C@H](NC)C(=O)O

How the values were obtained:
[1] = target: T1, CCK-2R (Rattus norvegicus, UniProt P30553); experiment: Determination of IC50: CCK-2R affinity on AR4-2J cells, competition with [^177Lu]Lu-DOTA-PP-F11N; type: binding
T1 construct: The CCK-2R expressing rat pancreatic tumor cells AR4-2J; host or cells: AR4-2J rat pancreatic tumor cells
T1 sequence (P30553 1-452): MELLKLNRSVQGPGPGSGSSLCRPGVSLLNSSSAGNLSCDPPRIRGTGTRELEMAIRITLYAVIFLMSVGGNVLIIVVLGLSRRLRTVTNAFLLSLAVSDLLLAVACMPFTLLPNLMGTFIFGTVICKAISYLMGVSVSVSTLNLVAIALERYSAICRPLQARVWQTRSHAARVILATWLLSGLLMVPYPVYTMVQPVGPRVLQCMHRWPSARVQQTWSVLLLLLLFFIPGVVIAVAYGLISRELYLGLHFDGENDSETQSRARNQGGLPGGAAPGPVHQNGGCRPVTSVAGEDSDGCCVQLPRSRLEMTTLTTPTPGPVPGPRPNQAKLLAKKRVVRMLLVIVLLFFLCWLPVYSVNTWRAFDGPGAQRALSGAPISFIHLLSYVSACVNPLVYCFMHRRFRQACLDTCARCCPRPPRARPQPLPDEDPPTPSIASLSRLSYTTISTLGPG
Procedure: AR4-2J cells were harvested 24 ± 2 h before the experiment and seeded in 24-well plates (2.0 × 10^5 cells in 1 mL/well). After removal of the nutrient medium (RPMI 1640, 5 mM L-Gln, 5 mL non-essential amino acids (100×), 10% FCS), the cells were washed once with 500 µL PBS. Thereafter, 200 µL nutrient medium (5% BSA, v/v) were added. Next, 25 µL per well of solutions containing either nutrient medium (5% BSA, v/v) as control or the respective compound in increasing concentration (10^-10 - 10^-4 M), were added with subsequent addition of 25 µL [^177Lu]Lu-DOTA-PP-F11N (0.3 pmol/well).
All experiments were performed in triplicate for each concentration. After 3 h incubation at 37 °C, the experiment was terminated by removal of the medium and consecutive rinsing with 300 µL PBS. The media of both steps were combined in one fraction and represent the amount of free radiolabeled reference. Afterwards, the cells were lysed with 300 µL of 1 M NaOH for at least 15 min and united with the 300 µL NaOH of the following washing step. Quantification of bound and free radiolabeled reference was accomplished in a γ-counter. IC50 determination for each conjugate was repeated twice.

[2] = n-Octanol-PBS distribution coefficient (logD7.4); type: physicochemical; conditions: pH = 7.4, ^177Lu-labeled
Procedure: Approximately 1 MBq of the labeled tracer was dissolved in 1 mL of a 1/1 mixture (v/v) of phosphate buffered saline (PBS, pH = 7.4) and n-octanol in an Eppendorf tube (1.5 mL). After vigorous mixing of the suspension for 3 min at rt, the vial was centrifuged at 9,000 rpm for 5 min (Biofuge 15, Heraeus Sepatech, Osterode, Germany) and 200 µL aliquots of both layers were measured in a γ-counter. The experiment was repeated at least five times.

[3] = AR4-2J cells; ^natLu-labeled; read-out: IC50 [nM] (n = 3), ^natLu-labeled
[4] = read-out: IC50 [nM] (n = 3), ^natLu-labeled; AR4-2J cells; ^natLu-labeled

Row | IC50 [1, 3] [nM] | Compound | logD7.4 (n ≥ 5), ^177Lu-labeled [2] | IC50 [1, 4] [nM]
1 | 6.7 ± 0.8 | CCCC[C@@H](C(=O)N[C@@H](CC(=O)O)C(=O)N[C@@H](Cc1cccc2ccccc12)C(N)=O)N(C)C(=O)[C@H](Cc1c[nH]c2ccccc12)NC(=O)CCOCCOCCOCCOCCOCCNC(=O)CC[C@@H](NC(=O)CN1CCN(CC(=O)O)CCN(CC(=O)O)CCN(CC(=O)O)CC1)C(=O)O [DOTA-CCK-78, DOTA-γ-glu-(PEG)4-Trp-(N-Me)Nle-Asp-1-Nal-NH2] ({DOTA-d(γGlu)-PEG5}-W[NMeNle]D[1Nal]-NH2) | −2.61 ± 0.06 | 
2 | 7 ± 0.6 | CCCC[C@@H](C(=O)N[C@@H](CC(=O)O)C(=O)N[C@@H](Cc1cccc2ccccc12)C(N)=O)N(C)C(=O)[C@H](Cc1c[nH]c2ccccc12)NC(=O)CCOCCOCCOCCOCCOCCOCCNC(=O)CC[C@@H](NC(=O)CN1CCN(CC(=O)O)CCN(CC(=O)O)CCN(CC(=O)O)CC1)C(=O)O [DOTA-CCK-79, DOTA-γ-glu-(PEG)5-Trp-(N-Me)Nle-Asp-1-Nal-NH2] ({DOTA-d(γGlu)-PEG6}-W[NMeNle]D[1Nal]-NH2) | −2.59 ± 0.05 | 
3 | 7.9 ± 0.2 | CCCC[C@@H](C(=O)N[C@@H](CC(=O)O)C(=O)N[C@@H](Cc1cccc2ccccc12)C(N)=O)N(C)C(=O)[C@H](Cc1c[nH]c2ccccc12)NC(=O)CCOCCOCCOCCOCCOCCOCCOCCOCCNC(=O)CC[C@@H](NC(=O)CN1CCN(CC(=O)O)CCN(CC(=O)O)CCN(CC(=O)O)CC1)C(=O)O [DOTA-CCK-80, DOTA-γ-glu-(PEG)7-Trp-(N-Me)Nle-Asp-1-Nal-NH2] ({DOTA-d(γGlu)-PEG8}-W[NMeNle]D[1Nal]-NH2) | −2.51 ± 0.09 | 
4 | 6.3 ± 0.7 | CCCC[C@@H](C(=O)N[C@@H](CC(=O)O)C(=O)N[C@@H](Cc1cccc2ccccc12)C(N)=O)N(C)C(=O)[C@H](Cc1c[nH]c2ccccc12)NC(=O)CCOCCOCCOCCOCCOCCOCCOCCOCCOCCOCCOCCOCCNC(=O)CC[C@@H](NC(=O)CN1CCN(CC(=O)O)CCN(CC(=O)O)CCN(CC(=O)O)CC1)C(=O)O [DOTA-CCK-81, DOTA-γ-glu-(PEG)11-Trp-(N-Me)Nle-Asp-1-Nal-NH2] ({DOTA-d(γGlu)-PEG12}-W[NMeNle]D[1Nal]-NH2) | −2.47 ± 0.10 | 
5 |  | CCCC[C@H](NC(=O)[C@H](Cc1c[nH]c2ccccc12)NC(=O)CNC(=O)[C@H](Cc1ccc(O)cc1)NC(=O)[C@H](C)NC(=O)CC[C@@H](NC(=O)CC[C@@H](NC(=O)CC[C@@H](NC(=O)CC[C@@H](NC(=O)CC[C@@H](NC(=O)CC[C@@H](NC(=O)CC[C@@H](NC(=O)CC[C@@H](CO)NC(=O)[C@@H](CNC(=O)c1ccc([Si](F)(C(C)(C)C)C(C)(C)C)cc1)NC(=O)CN1CCN(CC(=O)O)CCN(CC(=O)O)CCN(CC(=O)O)CC1)C(=O)O)C(=O)O)C(=O)O)C(=O)O)C(=O)O)C(=O)O)C(=O)O)C(=O)N[C@@H](CC(=O)O)C(=O)N[C@@H](Cc1ccccc1)C(N)=O [DOTA-MG-SiFA-29, DOTA-dap(SiFA)-Glutamol-(γ-glu)7-F11N] | −1.88 ± 0.07 | 6.55 ± 1.23
6 |  | CCCC[C@@H](C(=O)N[C@@H](CC(=O)O)C(=O)N[C@@H](Cc1cccc2ccccc12)C(N)=O)N(C)C(=O)[C@H](Cc1c[nH]c2ccccc12)NC(=O)CNC(=O)[C@H](Cc1ccc(O)cc1)NC(=O)[C@H](C)NC(=O)CC[C@@H](NC(=O)CC[C@@H](NC(=O)CC[C@@H](NC(=O)CC[C@@H](NC(=O)CC[C@@H](NC(=O)CC[C@@H](NC(=O)CC[C@@H](NC(=O)CC[C@@H](NC(=O)[C@@H](CNC(=O)c1ccc([Si](F)(C(C)(C)C)C(C)(C)C)cc1)NC(=O)CN1CCN(CC(=O)O)CCN(CC(=O)O)CCN(CC(=O)O)CC1)C(=O)O)C(=O)O)C(=O)O)C(=O)O)C(=O)O)C(=O)O)C(=O)O)C(=O)O [DOTA-MG-SiFA-40, DOTA-dap(SiFA)-(γ-glu)8-MGS5] | −1.83 ± 0.04 | 8.27 ± 0.35
7 |  | CCCC[C@H](NC(=O)[C@H](Cc1c[nH]c2ccccc12)NC(=O)CNC(=O)[C@H](Cc1ccc(O)cc1)NC(=O)[C@H](C)NC(=O)CC[C@@H](NC(=O)CC[C@@H](NC(=O)CC[C@@H](NC(=O)CC[C@@H](NC(=O)CC[C@@H](NC(=O)CC[C@@H](NC(=O)CC[C@@H](NC(=O)CCCNC(=O)[C@@H](CNC(=O)c1ccc([Si](F)(C(C)(C)C)C(C)(C)C)cc1)NC(=O)CN1CCN(CC(=O)O)CCN(CC(=O)O)CCN(CC(=O)O)CC1)C(=O)O)C(=O)O)C(=O)O)C(=O)O)C(=O)O)C(=O)O)C(=O)O)C(=O)N[C@@H](CC(=O)O)C(=O)N[C@@H](Cc1ccccc1)C(N)=O [DOTA-MG-SiFA-44, DOTA(-dap(SiFA)-GABA-(γ-glu)7-F11N] | −2.01 ± 0.07 | 3.47 ± 0.27
8 |  | CCCC[C@H](NC(=O)[C@H](Cc1c[nH]c2ccccc12)NC(=O)CNC(=O)[C@H](Cc1ccc(O)cc1)NC(=O)[C@H](C)NC(=O)CC[C@@H](NC(=O)CC[C@@H](NC(=O)CC[C@@H](NC(=O)CC[C@@H](NC(=O)CC[C@@H](NC(=O)CC[C@@H](NC(=O)CCCNC(=O)CCCNC(=O)[C@@H](CNC(=O)c1ccc([Si](F)(C(C)(C)C)C(C)(C)C)cc1)NC(=O)CN1CCN(CC(=O)O)CCN(CC(=O)O)CCN(CC(=O)O)CC1)C(=O)O)C(=O)O)C(=O)O)C(=O)O)C(=O)O)C(=O)O)C(=O)N[C@@H](CC(=O)O)C(=O)N[C@@H](Cc1ccccc1)C(N)=O [DOTA-MG-SiFA-45, DOTA-dap(SiFA)-(GABA)2-(γ-glu)6-F11N] | −1.98 ± 0.02 | 3.15 ± 0.12
9 |  | CCCC[C@H](NC(=O)[C@H](Cc1c[nH]c2ccccc12)NC(=O)CNC(=O)[C@H](Cc1ccc(O)cc1)NC(=O)[C@H](C)NC(=O)CC[C@@H](NC(=O)CC[C@@H](NC(=O)CC[C@@H](NC(=O)CC[C@@H](NC(=O)CC[C@@H](NC(=O)CCCNC(=O)CCCNC(=O)CCCNC(=O)[C@@H](CNC(=O)c1ccc([Si](F)(C(C)(C)C)C(C)(C)C)cc1)NC(=O)CN1CCN(CC(=O)O)CCN(CC(=O)O)CCN(CC(=O)O)CC1)C(=O)O)C(=O)O)C(=O)O)C(=O)O)C(=O)O)C(=O)N[C@@H](CC(=O)O)C(=O)N[C@@H](Cc1ccccc1)C(N)=O [DOTA-MG-SiFA-46, DOTA-dap(SiFA)-(GABA)3-(γ-glu)5-F11N] | −2.09 ± 0.07 | 5.52 ± 0.25
10 |  | CCCC[C@H](NC(=O)[C@H](Cc1c[nH]c2ccccc12)NC(=O)CNC(=O)[C@H](Cc1ccc(O)cc1)NC(=O)[C@H](C)NC(=O)CC[C@@H](NC(=O)CCCNC(=O)CC[C@@H](NC(=O)CCCNC(=O)CC[C@@H](NC(=O)CCCNC(=O)CC[C@@H](NC(=O)CCCNC(=O)[C@@H](CNC(=O)c1ccc([Si](F)(C(C)(C)C)C(C)(C)C)cc1)NC(=O)CN1CCN(CC(=O)O)CCN(CC(=O)O)CCN(CC(=O)O)CC1)C(=O)O)C(=O)O)C(=O)O)C(=O)O)C(=O)N[C@@H](CC(=O)O)C(=O)N[C@@H](Cc1ccccc1)C(N)=O [DOTA-MG-SiFA-47, DOTA-dap(SiFA)-(GABA-γ-glu)4-F11N] | −1.93 ± 0.08 | 6.77 ± 1.01

Row | Compound | IC50 [1, 3] [nM] | logD7.4 (n ≥ 5), ^177Lu-labeled [2] | IC50 [1, 4] [nM]
11 | CCCC[C@H](NC(=O)[C@H](Cc1c[nH]c2ccccc12)NC(=O)CNC(=O)[C@H](Cc1ccc(O)cc1)NC(=O)[C@H](C)NC(=O)CC[C@@H](NC(=O)CC[C@@H](NC(=O)CC[C@@H](NC(=O)CC[C@@H](NC(=O)CC[C@@H](NC(=O)CC[C@@H](NC(=O)[C@@H](CNC(=O)c1ccc([Si](F)(C(C)(C)C)C(C)(C)C)cc1)NC(=O)CN1CCN(CC(=O)O)CCN(CC(=O)O)CCN(CC(=O)O)CC1)C(=O)O)C(=O)O)C(=O)O)C(=O)O)C(=O)O)C(=O)O)C(=O)N[C@@H](CC(=O)O)C(=O)N[C@@H](Cc1ccccc1)C(N)=O [DOTA-MG-SiFA-19] | 7.54 ± 0.26 | −2.70 ± 0.09 | 
